Laboratory results published in ChEMBL document CHEMBL5214937, “Comparative analysis of p-terphenylquinone and seriniquinone derivatives as reactive oxygen species-modulating agents” (Bioorg Med Chem Lett, 2022).
Active and inactive are the calls of the source. The rule behind the calls is not given here.

Tests used:
HL-60 [1] = assay: Antiproliferative activity against human HL-60 cells assessed as reduction in cell viability at 12.5 uM incubated for 48 hrs by CCK-8 assay relative to control; format: functional
HL-60 [2] = assay: Antiproliferative activity against human HL-60 cells assessed as inhibition of cell growth incubated for 48 hrs by CCK-8 assay; format: functional, cell-based; settings: HL-60, 48 h
HL-60 [3] = assay: Induction of cell morphological changes in human HL-60 cells assessed as chromatin condensation at 3 uM incubated for 48 hrs by Hoechst 33342 staining based microscopic analysis; format: functional
HL-60 [4] = assay: Induction of cell morphological changes in human HL-60 cells assessed as appearance of apoptotic bodies at 3 uM incubated for 48 hrs by Hoechst 33342 staining based microscopic analysis; format: functional
HL-60 [5] = assay: Induction of ROS generation in human HL-60 cells assessed as fold increase in intracellular ROS level at 6.25 uM incubated for 3 hrs by NBT reduction assay relative to control; format: functional
B16 = assay: Antiproliferative activity against mouse B16 cells assessed as inhibition of cell growth incubated for 48 hrs by CCK-8 assay; format: functional, cell-based; settings: B16, 48 h
HL-60 [6] = assay: Induction of ROS generation in human HL-60 cells assessed as increase in extracellular ROS level at 6.25 uM incubated for 3 hrs by NBT reduction assay; format: functional, cell-based

Structure (SMILES)	IC50 (HL-60 [2]) [µM]	IC50 (B16) [nM]	Activity (HL-60 [1]) [%]	Activity (HL-60 [3])	Activity (HL-60 [4])	fold change (FC) (HL-60 [5])	Activity (HL-60 [6])
COc1ccc2c(=O)c3oc4c5cc(OC)ccc5c(=O)c(=O)c4c3c(=O)c2c1	–	–	11	–	–	–	–
COc1ccc2c(=O)c3sc4c(=O)c5ccc(OC)cc5c(=O)c4c3c(=O)c2c1	–	–	31.8	–	–	–	–
O=c1c2ccccc2c(=O)c2c1sc1c(=O)c3ccccc3c(=O)c12	1.73	2380	<10	Active	Active	>4	–
O=c1c2ccccc2c(=O)c2c1oc1c(=O)c3ccccc3c(=O)c12	0.07	180	<10	Active	Active	>4	–
COc1ccc2c(=O)c3c(oc4c5ccc(OC)cc5c(=O)c(=O)c43)c(=O)c2c1	–	–	74	–	–	–	–
O=c1c(=O)c2c(oc3c(=O)c4ccccc4c(=O)c32)c2ccccc12	1.57	2950	<10	Active	Active	>4	Active
O=c1c2ccccc2c(=O)c2c1[se]c1c(=O)c3ccccc3c(=O)c12	2.91	2830	<10	Active	Active	>4	–
O=C1C(O)=C(c2ccccc2)C(=O)C(O)=C1c1ccccc1	> 25	–	–	–	–	–	–

Continued, in another order:

IC50 (HL-60 [2]) [µM]	IC50 (B16) [nM]	Structure (SMILES)	Activity (HL-60 [1]) [%]	Activity (HL-60 [3])	Activity (HL-60 [4])	fold change (FC) (HL-60 [5])	Activity (HL-60 [6])
5.91	–	COC1=C(c2ccccc2)C(=O)C(OC)=C(c2ccccc2)C1=O [BETULINAN A]	–	–	–	–	–
> 25	–	COC1=C(c2ccc(OC)cc2)C(=O)C(OC)=C(c2ccc(OC)cc2)C1=O	–	–	–	–	–
5.71	–	O=C1C(O)=C(c2ccc(O)cc2)C(=O)C(O)=C1c1ccc(O)cc1	–	–	–	–	–
> 25	–	COc1ccc(C2=C(O)C(=O)C(c3ccc(OC)cc3)=C(O)C2=O)cc1	–	–	–	–	–
> 25	–	COC1=C(c2ccc(O)cc2)C(=O)C(OC)=C(c2ccc(O)cc2)C1=O	–	–	–	–	–
> 25	–	O=C1C(OC(=O)c2ccccc2)=C(c2ccc(O)cc2)C(=O)C(OC(=O)c2ccccc2)=C1c1ccc(O)cc1	–	–	–	–	–
